Laboratory results published in US8188059B2, “Compounds and methods for modulating expression of GCGR” (Isis Pharmaceuticals, Inc., priority 2006, dated 2012).
Strand notation (5' to 3'): a small letter for the sugar, then the base; units joined by * are phosphorothioate-linked, units joined directly phosphodiester-linked; [ ] holds rarer units or linkages, { } end groups; capitals alone tell only the bases. e = 2'-O-(2-methoxyethyl) (MOE); [5mC] = 5-methylcytosine; d = 2'-deoxy (DNA)

Tests used:
SGLT2 mRNA = SGLT2 mRNA levels in kidney of Balb/c mice, twenty 1-10-1 MOE gapmers at 350 nmol/kg, PPS 534 and PPS 553 (Example 18, Table 74); type: in vivo, mouse; conditions: 350 nmol/kg i.p. twice per week for two weeks
Experimental: Twenty 1-10-1 MOE gapmers that are complementary to human/monkey/mouse/rat SGLT2 were designed, synthesized and tested in vivo for suppression of SGLT2 mRNA levels in kidney. Data are averages from two experiments in which male 6-week old Balb/c mice were administered intraperitoneal injections of 350 nmol/kg of oligonucleotide, twice per week, over a period of two weeks (a total of four injections). Mice were sacrificed 48 hours following the last administration and evaluated for SGLT2 mRNA levels in kidney. SGLT2 mRNA levels were determined by quantitative real-time PCR analysis according to standard procedures, using two different PCR primer probe sets, primer probe set (PPS) 534 and PPS 553. SGLT2 mRNA levels were normalized to cyclophilin mRNA levels, which were also measured by quantitative real-time PCR.

GCGR mRNA = GCGR mRNA levels in liver of C57/BL6 mice, single i.p. dose (Example 4, Tables 35-41); type: in vivo, mouse; conditions: liver, single i.p. dose, 48 hours
Experimental: (§1) Eight-week old male C57/BL6 mice (Jackson Laboratory, Bar Harbor, Me.) were administered a single dose of GCGR oligonucleotide by intraperitoneal injection at a concentration of […]. Each dose group consisted of four animals. Shown in Table 31 are the sequences, motifs and conjugates of the GCGR antisense compounds used in this study. Bolded residues indicate 2′-O-methoxyethyl (2′-MOE) moieties. All compounds comprise phosphorothioate internucleoside linkages throughout and each cytosine is replaced with 5-methylcytosine. ISIS 386626, ISIS 386627 and ISIS 386628 further comprise a C16 conjugate group attached to the 2′-O position of the sugar via a diamide linkage (2′-OCH2C(═O)N(H)(CH2)4N(H)C(═O)—(CH2)15CH3). GCGR antisense compounds target published GCGR sequences, including Genbank® Accession No. BC031885.1 (SEQ ID NO: 7).
(§2) Mice were sacrificed 48 hours following injection to determine serum transaminase levels (Table 32); liver, white adipose tissue (WAT), spleen and kidney weight (Table 33); cholesterol, triglyceride and glucose levels (Table 34); GCGR mRNA levels (Tables 35-41); and full-length and total oligonucleotide concentration in liver and kidney (Table 42). Endpoints were assessed using methods described herein and well known to those of ordinary skill in the art. Data is included from a pre-treatment bleed (Pre-Bleed) and post-treatment bleed (Post-Bleed).
To determine whether the phenotypic changes shown above correlated with a decrease in GCGR mRNA, treated animals were evaluated for levels of target mRNA in liver by real time PCR according to methods described herein. Tables 35 to 41 show results from direct comparisons of the antisense compounds targeting GCGR nucleic acid for their effect on target expression. Results are expressed as percent of saline control.

[1] = Triglyceride, cholesterol and glucose levels, pre-bleed and post-bleed (Example 4, Table 34); type: in vivo, mouse; conditions: C57/BL6 mice, single i.p. dose, 48 hours
Experimental: as §1, §2

mouse SGLT2 mRNA = experiment: Mouse SGLT2 mRNA levels in kidney, additional 1-10-1 and 2-8-2 MOE gapmers, Balb/c mice (Example 15, Table 68); type: in vivo
Experimental: 1-10-1 and 2-8-2 MOE gapmer short antisense compounds were designed to target different regions of the mouse SGLT2 RNA but have complementarity across species. […] All cytidine residues are 5-methylcytidines.
The short antisense compounds were analyzed for their effect on mouse SGLT2 mRNA levels in vivo. Data was taken from three experiments in which male 6-week old Balb/c mice were dosed twice per week for three weeks with 0.5, 0.1, or 0.02 umol/kg of either a 1-10-1 or 2-8-2 MOE gapmer given by intraperitoneal injection. Mice were sacrificed 48 hours following last administration and evaluated for SGLT2 levels in kidney. Target levels were determined by RT, real-time PCR as described by other examples herein. PCR results were normalized to an internal ISIS control.

Substance | SGLT2 mRNA in kidney, % change relative to saline (SGLT2 mRNA; primer probe set 534) [%] | SGLT2 mRNA in kidney, % change relative to saline (SGLT2 mRNA; primer probe set 553) [%] | also measured
379695 (antisense eG*dG*dA*d[5mC]*dA*d[5mC]*d[5mC]*dG*dT*d[5mC]*dA*eG) [compound 379695] | −52.5 | −64.1 | 
379696 (antisense e[5mC]*dA*dG*d[5mC]*dT*dT*d[5mC]*dA*dG*dG*dT*eA) [compound 379696] | −24.6 | −36.2 | 
379697 (antisense e[5mC]*dT*dG*dG*d[5mC]*dA*dT*dG*dA*d[5mC]*d[5mC]*eA) [compound 379697] | −32.0 | −46.3 | 
379698 (antisense eG*d[5mC]*dA*dG*d[5mC]*d[5mC]*d[5mC]*dA*d[5mC]*d[5mC]*dT*e[5mC]) [compound 379698] | −11.8 | −27.0 | 
379699 (antisense eG*dG*d[5mC]*dA*dT*dG*dA*dG*d[5mC]*dT*dT*e[5mC]) [compound 379699] | −83.5 | −85.8 | 
379700 (antisense e[5mC]*d[5mC]*dA*dG*d[5mC]*dA*dT*dG*dA*dG*dT*e[5mC]) [compound 379700] | −2.8 | −16.4 | 
379701 (antisense e[5mC]*d[5mC]*dA*dT*dG*dG*dT*dG*dA*dA*dG*eA) [compound 379701] | −0.3 | −11.9 | 
379702 (antisense eG*d[5mC]*dA*d[5mC]*dA*d[5mC]*dA*dG*d[5mC]*dT*dG*e[5mC]) [compound 379702] | −87.8 | −89.5 | 
379703 (antisense eG*d[5mC]*d[5mC]*dG*dG*dA*dG*dA*d[5mC]*dT*dG*eA) [compound 379703] | −44.2 | −45.9 | 
ISIS 386626: GCGR 2-10-2 MOE gapmer with C16 conjugate group at the 2′-O position via a diamide linkage (antisense GCTTCTCCATCATA; chemistry not fully specified) |  |  | GCGR mRNA expression (GCGR mRNA): greatest decrease; post-bleed glucose levels [1]: decreased in a dose-dependent manner
ISIS 388627 (antisense eG*e[5mC]*dA*d[5mC]*dA*d[5mC]*dA*dG*d[5mC]*dT*eG*e[5mC]) |  |  | % change in SGLT2 expression relative to saline (mouse SGLT2 mRNA; 0.02 umol/kg i.p. twice per week for three weeks): −38%; % change in SGLT2 expression relative to saline (mouse SGLT2 mRNA; 0.1 umol/kg i.p. twice per week for three weeks): −50%; % change in SGLT2 expression relative to saline (mouse SGLT2 mRNA; 0.5 umol/kg i.p. twice per week for three weeks): −65%
